Laboratory results: patent publication US9695426B2, “Biofuel production by recombinant microorganisms” (The Regents of the University of California, priority 2007, dated 2017)

Tests used:
[1] = test system: E. coli culture expressing kivd; test: Alcohol productions with the supply of 2-keto acids; type: cell-based; conditions: 2-keto acid added to E. coli culture expressing kivd
Excerpt: The addition of various 2-keto acids (see Table 13) to the E. coli culture expressing kivd confirmed the specific production of the corresponding alcohols by 2- to 23-fold.

[2] = target: AHAS I (Escherichia coli, UniProt P08142); conditions: read-out: Km value for 2-ketobutyrate; cited from earlier work
[3] = target: E. coli TdcB (Escherichia coli, UniProt P0AGF6); conditions: E. coli TdcB in the absence of AMP; cited from earlier work
[4] = target: E. coli IlvA (Escherichia coli, UniProt P04968); conditions: purified E. coli IlvA in the absence of isoleucine; cited from earlier work
[5] = test system: native 1-butanol producers; conditions: cited from earlier work
[6] = test system: E. coli BW25113; test: propanol and butanol production via the threonine pathway with alternative enzymes; type: cell-based; conditions: BW ΔmetA, Δtdh, ΔilvB, ΔilvI; tdcB with leuABCD on pCS20; 72 hours
Description: For some alcohol fermentation experiments, single colonies were picked from LB plates and inoculated into 3 ml of LB media with the appropriate antibiotics (ampicillin 100 μg/ml, kanamycin 50 μg/ml, and spectinomycin 50 μg/ml). The overnight culture grown in LB at 37° C. in a rotary shaker (250 rpm) was then inoculated (1% vol/vol) into 20 ml of M9 medium (6 g Na2HPO4, 3 g KH2PO4, 0.5 g NaCl, 1 g NH4Cl, 1 mM MgSO4, 10 mg vitamin B1 and 0.1 mM CaCl2 per liter of water) containing 30 g/L glucose, 5 g/L yeast extract, appropriate antibiotics, and 1000× Trace Metal Mix A5 (2.86 g H3BO3, 1.81 g MnCl2.4H2O, 0.222 g ZnSO4.7H2O, 0.39 g Na2MoO4.2H2O, 0.079 g CuSO4.5H2O, 49.4 mg Co(NO3)2.6H2O per liter water) in 250 ml conical flask. The culture was allowed to grow at 37° C. in a rotary shaker (250 rpm) to an OD600 of 0.4˜0.6, then 12 ml of the culture was transferred to a 250 ml screw capped conical flask and induced with 1 mM IPTG. The induced cultures were grown at 30° C. in a rotary shaker (240 rpm). Samples were taken throughout the next three to four days by opening the screwed caps of the flasks, and culture broths were either centrifuged or filtered to retrieve the supernatant. […]
Metabolite Detections. The produced alcohol compounds were quantified by a gas chromatograph (GC) equipped with flame ionization detector. […]

Chain of E. coli IlvA (P04968 whole entry): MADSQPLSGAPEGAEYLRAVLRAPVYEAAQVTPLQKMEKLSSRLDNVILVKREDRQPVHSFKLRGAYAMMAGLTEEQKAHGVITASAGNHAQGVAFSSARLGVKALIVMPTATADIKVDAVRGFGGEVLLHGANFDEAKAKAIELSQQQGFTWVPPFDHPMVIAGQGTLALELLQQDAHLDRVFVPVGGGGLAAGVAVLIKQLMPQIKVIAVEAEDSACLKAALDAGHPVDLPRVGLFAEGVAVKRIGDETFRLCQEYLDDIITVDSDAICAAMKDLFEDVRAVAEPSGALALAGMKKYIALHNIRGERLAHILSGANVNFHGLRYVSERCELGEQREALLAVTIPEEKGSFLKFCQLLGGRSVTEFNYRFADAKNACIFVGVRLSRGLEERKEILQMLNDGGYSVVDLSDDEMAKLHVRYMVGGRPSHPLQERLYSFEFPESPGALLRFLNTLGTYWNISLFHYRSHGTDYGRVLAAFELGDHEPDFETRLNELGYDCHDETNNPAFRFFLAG
Chain of AHAS I (P0ADF8 whole entry): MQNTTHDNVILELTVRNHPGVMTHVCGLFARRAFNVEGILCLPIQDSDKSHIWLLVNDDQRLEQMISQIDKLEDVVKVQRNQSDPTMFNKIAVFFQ
Chain of AHAS I (P08142 whole entry): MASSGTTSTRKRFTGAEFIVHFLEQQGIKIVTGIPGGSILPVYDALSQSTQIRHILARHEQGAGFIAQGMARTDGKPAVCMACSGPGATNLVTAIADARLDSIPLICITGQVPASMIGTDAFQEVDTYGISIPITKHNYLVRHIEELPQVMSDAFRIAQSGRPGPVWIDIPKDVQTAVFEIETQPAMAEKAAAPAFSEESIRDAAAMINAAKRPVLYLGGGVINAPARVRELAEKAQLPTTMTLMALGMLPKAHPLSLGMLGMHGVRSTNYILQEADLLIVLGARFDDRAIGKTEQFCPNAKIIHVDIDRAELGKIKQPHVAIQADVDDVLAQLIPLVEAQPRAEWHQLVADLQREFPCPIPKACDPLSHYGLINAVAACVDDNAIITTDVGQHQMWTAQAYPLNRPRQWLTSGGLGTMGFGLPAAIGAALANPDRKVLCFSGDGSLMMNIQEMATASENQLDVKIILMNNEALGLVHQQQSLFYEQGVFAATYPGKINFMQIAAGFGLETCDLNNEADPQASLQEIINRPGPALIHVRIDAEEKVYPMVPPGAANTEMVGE

CCC(=O)C(=O)O [2-ketobutyrate]
Product 1-butanol [1]: 492 µM | Product 1-propanol [1]: 2138 µM | Product 2-methyl-1-butanol [1]: 1315 µM | Product 2-phenylethanol [1]: 26 µM | Product isobutanol [1]: 98 µM | Km [2]: ~5 mM

C[C@@H](O)[C@H](N)C(=O)O [threonine]
Km [3]: 20 mM | Km [4]: 8 mM

CCCCO [1-butanol]
tolerated 1-butanol concentration [5]: up to 2%

B1: TdcB: E. coli's catabolic threonine dehydratase (protein, UniProt P0AGF6 1-329, looked up)
L-threonine dehydratase …: MHITYDLPVAIDDIIEAKQRLAGRIYKTGMPRSNYFSERCKGEIFLKFENMQRTGSFKIRGAFNKLSSLTDAEKRKGVVACSAGNHAQGVSLSCAMLGIDGKVVMPKGAPKSKVAATCDYSAEVVLHGDNFNDTIAKVSEIVEMEGRIFIPPYDDPKVIAGQGTIGLEIMEDLYDVDNVIVPIGGGGLIAGIAVAIKSINPTIRVIGVQSENVHGMAASFHSGEITTHRTTGTLADGCDVSRPGNLTYEIVRELVDDIVLVSEDEIRNSMIALIQRNKVVTEGAGALACAALLSGKLDQYIQNRKTVSIISGGNIDLSRVSQITGFVDA
lower production of both target alcohols compared to IlvA [6]: 70%
